# Results: patent publication US6696249B1, “Method for screening for inhibitors and activators of type III secretion machinery in gram-negative bacteria” (priority 1998, dated 2004)
# How the values were obtained:
# ipaA-lacZ fusion = experiment: ipaA-lacZ transcriptional fusion, β-galactosidase activity in vitro; type: cell-based, Shigella flexneri
# [1] = test system: Secretion of IpaB and IpaC; conditions: Parsot et al, 1995; cited from earlier work
# virA-lacZ mxiD = experiment: virA-lacZ transcriptional fusion in mxiD (secretion deficient) strain SF1012, β-galactosidase activity in vitro; type: cell-based, Shigella flexneri
# Protocol: (§1) All Shigella flexneri strains identified in Table I are derivatives of the wild-type strain M90T (Sansonetti et al., 1982). Bacteria were grown in Luria-Bertani (LB) medium or tryptic soy (TCS) broth. Antibiotics were used at the following concentrations: ampicillin, 100 μg/ml; kanamycin, 30 μg/ml; and streptomycin, 100 μg/ml. Congo red (SERVA, Heidelberg, Germany) was used to induce secretion by bacteria growing in LB medium.
# To determine whether regulation of virA transcription was dependent on the type III secretion machinery, we compared the β-galactosidase activities produced by the virA-lacZ fusion in derivatives of wild-type (SF1001) and mxiD (SF1012) strains during growth in the presence of Congo red and we compared the production of VirA in ipaD and mxiD ipaD strains.
# (§2) To investigate kinetics of activation of the virA promoter, Congo red (100 μg/ml) was added to the growth medium during the exponential phase of growth of derivatives of the wild-type and mxiD strains carrying the virA-lacZ fusion. Samples were then collected at 5 min intervals and assayed for β-galactosidase activity.
# (§3) The β-galactosidase activity present in bacteria growing in laboratory media was assayed by using the substrate o-nitro-phenyl-β-D-galactoside (ONPG) as described (Platt et al, 1972). The β-galactosidase activity present in intracellular bacteria was assayed by using the substrate 4-methyl-umbelliferyl-β-D-galactoside (MUG) as described (Klarsfeld et al., 1994). Fluorescence was measured by using a Dynatec apparatus, with 365 nm excitation and 450 nm emission wavelengths. Activities were computed as fluorescence units per hour per bacterium; four fluorescence units were equivalent to one Miller unit and all results are presented in Miller units.
# icsB-lacZ fusion = experiment: icsB-lacZ transcriptional fusion, β-galactosidase activity in vitro; type: cell-based, Shigella flexneri
# virA-lacZ fusion = type: cell-based, Shigella flexneri
# Protocol: as §1
# Secretion of IpaB and IpaC is enhanced when bacteria grow in the presence of Congo red (Parsot et al, 1995). To investigate the effect of Congo red on virA transcription, we assayed the β-galactosidase activity in strain SF1001 (virA-lacZ ipaD^+) after growth in the presence of various concentrations of Congo red.
# as §2, §3
# mxiD-lacZ fusion = experiment: mxiD-lacZ transcriptional fusion, β-galactosidase activity in vitro; type: cell-based, Shigella flexneri
# [2] = test system: ipaH9.8-, ipaH7.8-, ipaH4.5-, and ipaH1.4-lacZ fusions; experiment: ipaH-lacZ fusions taken together, β-galactosidase activity in vitro; type: cell-based, Shigella flexneri; conditions: 100 μg/ml of Congo red
# ipaH1.4-lacZ fusion = experiment: ipaH1.4-lacZ transcriptional fusion, β-galactosidase activity in vitro; type: cell-based, Shigella flexneri; conditions: ipaD+ strain
# ipaH4.5-lacZ fusion = experiment: ipaH4.5-lacZ transcriptional fusion, β-galactosidase activity in vitro; type: cell-based, Shigella flexneri; conditions: ipaD+ strain
# ipgD-lacZ fusion = experiment: ipgD-lacZ transcriptional fusion, β-galactosidase activity in vitro; type: cell-based, Shigella flexneri
# ipaH7.8-lacZ fusion = experiment: ipaH7.8-lacZ transcriptional fusion, β-galactosidase activity in vitro; type: cell-based, Shigella flexneri; conditions: ipaD+ strain
# ipaH9.8-lacZ fusion = experiment: ipaH9.8-lacZ transcriptional fusion, β-galactosidase activity in vitro; type: cell-based, Shigella flexneri; conditions: ipaD+ strain
# [3] = test system: icsB-, ipaA-, ipgD-, and mxiD-lacZ fusions; experiment: entry region lacZ fusions taken together, transcription in vitro; type: cell-based, Shigella flexneri; conditions: Congo red in the growth medium
# [4] = ipaD+ strain grown in presence of Congo red
smiles,measurement,setting,value
Nc1c(/N=N/c2ccc(-c3ccc(/N=N/c4cc(S(=O)(=O)O)c5ccccc5c4N)cc3)cc2)cc(S(=O)(=O)O)c2ccccc12 [Congo red],Ratio li: activity with Congo red versus without Congo red,ipaA-lacZ fusion; ipaD+ strain,0.8
same,"β-galactosidase activity, ipaD+ + CR",ipaA-lacZ fusion; [4],390 Miller units
same,Secretion of IpaB and IpaC when bacteria grow in the presence of Congo red,[1],enhanced
same,Transcriptional activation of the virA-lacZ fusion after addition of the dye,"virA-lacZ mxiD; mxiD mutant derivative, Congo red 100 μg/ml added in exponential phase",no transcriptional activation
same,Increase in β-galactosidase activity on growth with Congo red,"virA-lacZ mxiD; mxiD strain carrying virA-lacZ, Congo red in growth medium",did not lead to an increase
same,Ratio li: activity with Congo red versus without Congo red,virA-lacZ mxiD; virA-lacZ mxiD strain,1.1
same,"β-galactosidase activity, ipaD+ + CR",virA-lacZ mxiD; virA-lacZ mxiD strain grown in presence of Congo red,18 Miller units
same,Ratio li: activity with Congo red versus without Congo red,icsB-lacZ fusion; ipaD+ strain,1.0
same,"β-galactosidase activity, ipaD+ + CR",icsB-lacZ fusion; [4],285 Miller units
same,Concentration of Congo red at which virA-lacZ transcription reaches a plateau,virA-lacZ fusion,about 100 μg/ml
same,Transcription of the virA-lacZ fusion at low dye concentrations,"virA-lacZ fusion; SF1001, concentrations of dye up to 20 μg/ml",low
same,Ratio li: activity with Congo red versus without Congo red,"virA-lacZ fusion; virA-lacZ, ipaD+ strain",17
same,"β-galactosidase activity, ipaD+ + CR","virA-lacZ fusion; virA-lacZ, ipaD+ strain grown in presence of 100 μg/ml Congo red, mean of at least three experiments",280 Miller units
same,Time after addition of the dye at which an increase in β-galactosidase specific activity was detected,"virA-lacZ fusion; wild-type derivative, Congo red 100 μg/ml added in exponential phase, samples at 5 min intervals",10 min
same,Ratio li: activity with Congo red versus without Congo red,mxiD-lacZ fusion; ipaD+ strain,1.2
same,"β-galactosidase activity, ipaD+ + CR",mxiD-lacZ fusion; [4],320 Miller units
same,Times more β-galactosidase activity after growth with Congo red,[2],3-12 times
same,Ratio li: activity with Congo red versus without Congo red,ipaH1.4-lacZ fusion,5.1
same,"β-galactosidase activity, ipaD+ + CR",ipaH1.4-lacZ fusion; 100 μg/ml Congo red,270 Miller units
same,Ratio li: activity with Congo red versus without Congo red,ipaH4.5-lacZ fusion,3.5
same,"β-galactosidase activity, ipaD+ + CR",ipaH4.5-lacZ fusion; 100 μg/ml Congo red,110 Miller units
same,Ratio li: activity with Congo red versus without Congo red,ipgD-lacZ fusion; ipaD+ strain,1.1
same,"β-galactosidase activity, ipaD+ + CR",ipgD-lacZ fusion; [4],475 Miller units
same,Ratio li: activity with Congo red versus without Congo red,ipaH7.8-lacZ fusion,12
same,"β-galactosidase activity, ipaD+ + CR",ipaH7.8-lacZ fusion; 100 μg/ml Congo red,235 Miller units
same,Ratio li: activity with Congo red versus without Congo red,ipaH9.8-lacZ fusion,12
same,"β-galactosidase activity, ipaD+ + CR",ipaH9.8-lacZ fusion; 100 μg/ml Congo red,325 Miller units
same,Effect of Congo red in growth medium on transcription,[3],not affected
